The source of these data is ChEMBL document CHEMBL4425155, “Synthesis and anti-HBV activity of α-stereoisomer of aristeromycin based analogs” (Bioorg Med Chem Lett, 2016).

A short description of series [1]: Cytotoxicity against human HepG2.2.15.7 cells assessed as reduction in cell viability after 9 days by tetrazolium dye based method.
In the next series the test system is Hepatitis B virus. The experiment in a line: Antiviral activity against HBV infected in human HepG2.2.15.7 cells assessed as inhibition of viral DNA level after 9 days by real time PCR method. The format is functional, organism-based. Conditions: HepG2.2.15.7, 216 h. A general note: In qPCR the cycle at which signal appears reflects the starting amount.

Regarding `Cc1nc(N)c2c(Br)nn([C@@H]3C[C@@H](CO)[C@@H](O)[C@H]3O)c2n1`, the CC50 (in general, the concentration that lowers cell viability or growth by half) at 216 h in series [1] was over 100 µM. The EC50 (in general, the concentration needed to bring the measured effect to its halfway point) in the series on Hepatitis B virus was over 100 µM.

In the case of `Cc1ncnc2c1c(Br)cn2[C@@H]1C[C@@H](CO)[C@@H](O)[C@H]1O`, the CC50 at 216 h in series [1] was over 100 µM. In addition, the EC50 with Hepatitis B virus came to 6.6 µM.

As to `Nc1ccn([C@@H]2CS[C@H](CO)O2)c(=O)n1` [LAMIVUDINE], in series [1], the 50% cytotoxic concentration (CC50) at 216 h was over 10 µM. The 50% effective concentration (EC50) with Hepatitis B virus stood at 0.03 µM.
